From patent US12403121B2, “Anticancer rocaglamide derivatives” (priority 2018, dated 2025)

How the values were obtained:
STS26T cells = test: Western blots of treated MPNST cells; type: cell-based, human; conditions: 1 or 2 IC50
Protocol: FIGS. 2A and 2B provide images showing that DDR and Roc increase caspase and PARP cleavage and elevated the levels of γH2AX while decreasing the expression of AKT and ERKs in MPNST cells. (A) Protein lysates prepared from STS26T cells treated for 3 days with 1 or 2 IC50 of DDR or Roc were analyzed by Western blots for the expression of various apoptosis-related proteins and mitogenic kinases AKT and ERK1/2. GAPDH served as a loading control. (B) Western blot analysis was performed on lysates from STS26T cells treated for 1 and 2 days with 1 or 2 IC50 of DDR for the expression of the DNA-damage response biomarker phosphorylated H2A.X (γH2A.X). As a positive control, lysates from HMS-97 human malignant schwannoma cells irradiated with 4 Grays (Gy) of X-ray were used.
(§1) Subconfluent cells were treated with the indicated doses of Roc or DDR for 24-72 hours and then harvested in cell lysis buffer (Cell Signaling Technology) containing 1 mM phenylmethylsufonylfluoride and protease inhibitor cocktail (Sigma-Aldrich). The protein content in cleared lysates was quantitated using the microBCA assay (ThermoFisher). Equal amounts of protein were run in sodium dodecyl sulfate-polyacrylamide gels and electrotransferred onto Immobilon-FL PVDF membranes (Millipore). The antibodies used were directed against: MDR1/ABCB1 (#13978), insulin-like growth factor-1 receptor β subunit (IGF-1Rβ; #9750), AKT (#9272), ERK1/2 (#4695), glyceraldehyde-3-phosphate dehydrogenase (GAPDH; #5174), caspase-3 (#9662), caspase-7 (#9492), cleaved caspase-7 (#9491), poly(ADP-ribose) polymerase (PARP; #9532), cleaved PARP (#5625), and phospho-histone H2A.X (pH2A.X[Ser′^39]; #9718; all from Cell Signaling Technology), NKX2.2 (sc-514161), LSD1 (sc-136174), and survivin (sc-17779; Santa Cruz Biotechnology), and FLI1 (ab15289) and cleaved caspase-3 (CC3; ab32042; Abeam). Protein bands were detected using IRDye® infrared fluorescent dye-labeled secondary antibodies and scanning on an Odyssey CLx imaging system (LI-COR Biosciences) using the appropriate fluorescent channel at a resolution of 84 μm.
To confirm induction of apoptosis in rocaglamide-treated MPNST cells, the inventors analyzed protein expression of several markers important for this process. […] A concomitant decrease in the amounts of intact caspases 3 and 7 and PARP was observed, consistent with the enhanced cleavage of these apoptotic markers and possibly due to direct effects of these rocaglamides on protein translation. Likewise, the levels of the pro-survival kinases AKT and ERK1/2 were diminished in rocaglamide-treated MPNST cells.

[1] = test system: A673, TC32, 143B, MG-63, Saos2, OS17 and RD sarcoma cell lines; test: Cell proliferation in Ewing sarcoma, osteosarcoma and rhabdomyosarcoma cell lines; type: cell-based; conditions: two Ewing sarcoma, four osteosarcoma, one rhabdomyosarcoma cell lines
Protocol: The human MPNST cell lines, ST8814, STS26T, S462, T265, and luciferase-expressing ST8814-Luc, the human NF2-deficient meningioma cell line Ben-Men-1, the NJ2 mouse schwannoma cell line Sch10545, and primary human Schwann cells were propagated as previously described. Oblinger et al., Neuro-Oncol., 18:1265-1277 (2016). The Ewing sarcoma cell line A673 and the osteosarcoma cell lines, 143B and MG-63, were grown in Dulbecco's Modified Eagle's (DME) medium (Millipore-Sigma) supplemented with 10% fetal bovine serum (FBS; Atlanta Biological). The silvestrol-sensitive 697 and silvestrol-resistant 697-R pre-B acute lymphoblastic leukemia cells (Gupta et al., AAPS J., 13:357-364 (2011)), the Ewing sarcoma cell line TC32, the osteosarcoma cell lines, Saos2 and OS17, and the rhabdomyosarcoma cell line RD were cultivated in RPMI 1640 medium (Millipore-Sigma) plus 10% FBS.
Actively-growing cells were seeded in 96-well plates (Sarstedt) at 2,000 cells/well for Ben-Men-1 and RD cells, 30,000 cells/well for 697 and 697-R cells, and 4,000 cells/well for all other cell lines. The following day, cells were treated with various concentrations of each compound or and 0.05% of DMSO as the control for six days for MG-63 cells or three days for all remaining cell lines. Cell proliferation was assessed using resazurin assays and the IC50 value calculated. Cell cycle analysis was performed accordingly. Burns et al., Cancer Res., 73:792-803 (2013).
Since MPNSTs comprise only ˜2% of all sarcomas (Farid et al. Oncologist, 19:193-201 (2014)), the inventors expanded their testing of Roc and DDR to three other more prevalent sarcomas particularly in children and young adults: Ewing sarcoma, osteosarcoma, and rhabdomyosarcoma.

[2] = test system: TC32 Ewing sarcoma, 143B osteosarcoma, and RD rhabdomyosarcoma cells; test: Western blots of treated sarcoma cells; type: cell-based
Protocol: FIGS. 7A-7C provide images showing DDR and Roc reduce multiple signaling proteins important for the growth and survival of sarcoma cells. Lysates prepared from TC32 Ewing sarcoma (A), 143B osteosarcoma (B), and RD rhabdomyosarcoma (C) cells were treated 1 and 2 days with the indicated concentrations of DDR or Roc and analyzed by Western blotting for the expression of various oncogenic driver proteins. GAPDH was used as a loading control.
as §1
To further examine the molecular mechanisms underlying the antiproliferative effects of rocaglamides, the inventors treated TC32 Ewing sarcoma, 143B osteosarcoma, and RD rhabdomyosarcoma cells with 1- or 2-IC50 dose of DDR or rocaglamide for 1-2 days followed by Western blotting for several known drivers of cell survival and proliferation. […] They also observed reduction of the IGF-1Rβ levels in rocaglamide-treated MPNST cells. In addition, Roc and DDR decreased the levels of AKT, ERKs, cyclin D1 and survivin in treated TC32, 143B, and RD cells (FIG. 7). Intriguingly, the oncogenic fusion protein EWS-FLI1, which acts as an aberrant transcription factor in Ewing sarcoma, was not affected in Roc- and DDR-treated TC32 Ewing sarcoma cells (FIG. 7A). […] However, the expression of lysine demethylase 1 (LSD1), which modulates EWS-FLI1 transcriptional activity (Sankar et al., Oncogene, 32:5089-5100 (2013)), and NKX2.2, an EWS-FL11-regulated gene necessary for oncogenic transformation (Smith et al., Cancer Cell, 9:405-416 (2006)), were diminished by these rocaglamides in TC32 cells (FIG. 7A).

Q: With `COc1ccc([C@@]23Oc4cc(OC)cc(OC)c4[C@]2(O)[C@H](O)[C@H](C(=O)N(C)C)[C@H]3c2ccccc2)cc1` [Roc, rocaglamide] as the compound, how does the “levels of γH2AX” value (STS26T cells; STS26T MPNST cells) read?
A: Its value is “elevated”.

Q: What about the “cleavage of caspases 3 and 7 and PARP” value (STS26T cells; STS26T cells, 3 days) of the same compound?
A: Its value is “increased cleavage”.

Q: What about the “expression of AKT and ERKs” value (STS26T cells; STS26T cells, 3 days) of the same compound?
A: Its value is “decreasing”.

Q: And the “activity against sarcoma cell lines” value [1]?
A: Its value is “highly active”.

Q: And the “levels of the β subunit of IGF-1R” value ([2]; 1- or 2-IC50 dose, 1-2 days, all three sarcoma cell lines)?
A: The value was “reliably reduced”.

Q: And the “levels of AKT, ERKs, cyclin D1 and survivin” value ([2]; TC32, 143B, and RD cells, 1- or 2-IC50 dose, 1-2 days)?
A: Its value is “decreased”.

Q: What about the “EWS-FLI1 fusion protein level” value ([2]; TC32 Ewing sarcoma cells) of the same compound?
A: Its value is “not affected”.

Q: What about the “expression of LSD1 and NKX2.2” value ([2]; TC32 cells) of the same compound?
A: The value was “diminished”.
